# Test results from patent US9115101B2 (Genentech, Inc., priority 2012, dated 2015).
# Biological target: T1, RORc ligand binding domain (Homo sapiens, UniProt P51449)
# T1 construct: host or cells: E. coli
# T1 sequence (P51449 269-508 limits assumed): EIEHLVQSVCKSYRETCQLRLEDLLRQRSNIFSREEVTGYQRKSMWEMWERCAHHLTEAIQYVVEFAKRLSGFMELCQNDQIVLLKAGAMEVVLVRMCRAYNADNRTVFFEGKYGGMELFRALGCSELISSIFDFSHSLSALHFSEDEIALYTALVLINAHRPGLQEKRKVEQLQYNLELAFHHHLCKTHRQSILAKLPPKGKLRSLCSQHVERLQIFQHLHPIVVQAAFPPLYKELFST
# Experiment: In Vitro RORc Ligand Binding Assay (25-[3H]hydroxycholesterol radioligand filtration)
# Details: In Vitro RORc Ligand Binding Assay; Table 4; read-out: RORc IC50
row,IC50 [µM],SMILES
1,1.77,"C[C@H]1CCC(c2ccccc2)S(=O)(=O)N1Cc1ccc(C(=O)N2CCC(CCNS(C)(=O)=O)CC2)cc1 (stereo partly drawn) [Example 294, N-(2-{1-[4-((3S)-Methyl-1,1-dioxo-6-phenyl-[1,2]thiazinan-2-ylmethyl)-benzoyl]-piperidin-4-yl}-ethyl)-methanesulfonamide]"
2,5.35,"C[C@H]1CCC(c2ccccc2)S(=O)(=O)N1Cc1ccc(C(=O)N2CC(c3nncn3C)C2)cc1 (stereo partly drawn) [Example 295, [4-((3S)-Methyl-1,1-dioxo-6-phenyl-[1,2]thiazinan-2-ylmethyl)-phenyl]-[3-(4-methyl-4H-[1,2,4]triazol-3-yl)-azetidin-1-yl]-methanone]"
3,1.29,"C[C@H]1CCC(c2ccccc2)S(=O)(=O)N1Cc1ccc(C(=O)N2CCn3ccnc3C2)cc1 (stereo partly drawn) [Example 296, (5,6-Dihydro-8H-imidazo[1,2-a]pyrazin-7-yl)-[4-((3S)-methyl-1,1-dioxo-6-phenyl-[1,2]thiazinan-2-ylmethyl)-phenyl]-methanone]"
4,2.69,"C[C@H]1CCC(c2ccccc2)S(=O)(=O)N1Cc1ccc(C(=O)N2CC(c3cc[nH]n3)C2)cc1 (stereo partly drawn) [Example 297, [4-((3S)-Methyl-1,1-dioxo-6-phenyl-[1,2]thiazinan-2-ylmethyl)-phenyl]-[3-(1H-pyrazol-3-yl)-azetidin-1-yl]-methanone]"
5,4.72,"C[C@H]1CCC(c2ccccc2)S(=O)(=O)N1Cc1ccc(C(=O)N2CCOC(C(N)=O)C2)cc1 (stereo partly drawn) [Example 298, 4-[4-((3S)-Methyl-1,1-dioxo-6-phenyl-[1,2]thiazinan-2-ylmethyl)-benzoyl]-morpholine-2-carboxylic acid amide]"
6,4.93,"CNC(=O)C1CN(C(=O)c2ccc(CN3[C@@H](C)CCC(c4ccccc4)S3(=O)=O)cc2)CCO1 (stereo partly drawn) [Example 299, 4-[4-((3S)-Methyl-1,1-dioxo-6-phenyl-[1,2]thiazinan-2-ylmethyl)-benzoyl]-morpholine-2-carboxylic acid methylamide]"
7,0.049,"C=C1CCC(c2ccccc2)S(=O)(=O)N(Cc2ccc(N3CCN(C(C)=O)CC3)cc2F)C1 (stereo not shown) [Example 348, 1-{4-[3-Fluoro-4-(4-methylene-1,1-dioxo-7-phenyl-[1,2]thiazepan-2-ylmethyl)-phenyl]-piperazin-1-yl}-ethanone]"
8,0.31,"CC(=O)N1CCN(c2ccc(CN3[C@H](C)CC(c4ccccc4)S3(=O)=O)c(F)c2)CC1 (stereo partly drawn) [Example 349, 1-{4-[3-Fluoro-4-((3R)-methyl-1,1-dioxo-5-phenyl-isothiazolidin-2-ylmethyl)-phenyl]-piperazin-1-yl}-ethanone]"
9,3.01,"C[C@H]1CCC(c2ccccc2)S(=O)(=O)N1Cc1ccc(C(=O)N2CCC3(COC3)C2)cc1 (stereo partly drawn) [Example 354, [4-((3S)-Methyl-1,1-dioxo-6-phenyl-[1,2]thiazinan-2-ylmethyl)-phenyl]-(2-oxa-6-aza-spiro[3.4]oct-6-yl)-methanone]"
10,3.17,"C[C@H]1CCC(c2ccccc2)S(=O)(=O)N1Cc1ccc(C(=O)N2CC3(CCCOC3)C2)cc1 (stereo partly drawn) [Example 356, [4-((3S)-Methyl-1,1-dioxo-6-phenyl-[1,2]thiazinan-2-ylmethyl)-phenyl]-(6-oxa-2-aza-spiro[3.5]non-2-yl)-methanone]"
11,0.108,"C[C@H]1CCC(c2ccccc2)S(=O)(=O)N1Cc1ccc(C(=O)N2CCCC2CCNS(C)(=O)=O)cc1 (stereo partly drawn) [Example 357, N-(2-{1-[4-((3S)-Methyl-1,1-dioxo-6-phenyl-[1,2]thiazinan-2-ylmethyl)-benzoyl]-pyrrolidin-2-yl}-ethyl)-methanesulfonamide]"
12,1.22,"C[C@H]1CCC(c2ccccc2)S(=O)(=O)N1Cc1ccc(C(=O)N2CCC3(CCOC3)C2)cc1 (stereo partly drawn) [Example 358, [4-((3S)-Methyl-1,1-dioxo-6-phenyl-[1,2]thiazinan-2-ylmethyl)-phenyl]-(2-oxa-7-aza-spiro[4.4]non-7-yl)-methanone]"
13,2.03,"CC(=O)NCCC1CCN(C(=O)c2ccc(CN3[C@@H](C)CCC(c4ccccc4)S3(=O)=O)cc2)CC1 (stereo partly drawn) [Example 359, N-(2-{1-[4-((3S)-Methyl-1,1-dioxo-6-phenyl-[1,2]thiazinan-2-ylmethyl)-benzoyl]-piperidin-4-yl}-ethyl)-acetamide]"
14,0.641,"C[C@H]1CCC(c2ccccc2)S(=O)(=O)N1Cc1ccc(C(=O)N2CCOC3(CCOC3)C2)cc1 (stereo partly drawn) [Example 361, (2,6-Dioxa-9-aza-spiro[4.5]dec-9-yl)-[4-((3S)-methyl-1,1-dioxo-6-phenyl-[1,2]thiaznan-2-ylmethyl)-phenyl]-methanone]"
15,0.903,"C[C@H]1CCC(c2ccccc2)S(=O)(=O)N1Cc1ccc(C(=O)N2CCC3(CC2)COC3)cc1 (stereo partly drawn) [Example 362, [4-((3S)-Methyl-1,1-dioxo-6-phenyl-[1,2]thiazinan-2-ylmethyl)-phenyl]-(2-oxa-7-aza-spiro[3.5]non-7-yl)-methanone]"
16,2.43,"C[C@H]1CCC(c2ccccc2)S(=O)(=O)N1Cc1ccc(C(=O)N2CCN(C)C(=O)C2)cc1 (stereo partly drawn) [Example 363, 1-Methyl-4-[4-((3S)-methyl-1,1-dioxo-6-phenyl-[1,2]thiazinan-2-ylmethyl)-benzoyl]-piperazin-2-one]"
17,2.92,"C[C@H]1CCC(c2ccccc2)S(=O)(=O)N1Cc1ccc(C(=O)N2CC3COCC3C2)cc1 (stereo partly drawn) [Example 364, [4-((3S)-Methyl-1,1-dioxo-6-phenyl-[1,2]thiazinan-2-ylmethyl)-phenyl]-(tetrahydro-furo[3,4-c]pyrrol-5-yl)-methanone]"
18,1.35,"C[C@H]1CCC(c2ccccc2)S(=O)(=O)N1Cc1ccc(C(=O)N2CCc3cn[nH]c3C2)cc1 (stereo partly drawn) [Example 365, [4-((3S)-Methyl-1,1-dioxo-6-phenyl-[1,2]thiazinan-2-ylmethyl)-phenyl]-(1,4,5,7-tetrahydro-pyrazolo[3,4-c]pyridin-6-yl)-methanone]"

# Second part, the compound before the results:
row,SMILES,IC50 [µM]
1,"C[C@H]1CCC(c2ccccc2)S(=O)(=O)N1Cc1ccc(C(=O)N(C)CC2CCCO2)cc1 (stereo partly drawn) [Example 283, N-Methyl-4-((3S)-methyl-1,1-dioxo-6-phenyl-[1,2]thiazinan-2-ylmethyl)-N-(tetrahydro-furan-2-ylmethyl)-benzamide]",1.31
2,"C[C@H]1CCC(c2ccccc2)S(=O)(=O)N1Cc1ccc(C(=O)N2CCCC(O)CC2)cc1 (stereo partly drawn) [Example 284, (4-Hydroxy-azepan-1-yl)-[4-((3S)-methyl-1,1-dioxo-6-phenyl-[1,2]thiazinan-2-ylmethyl)-phenyl]-methanone]",1.43
3,"CC(=O)N1CCCN(C(=O)c2ccc(CN3[C@@H](C)CCC(c4ccccc4)S3(=O)=O)cc2)CC1 (stereo partly drawn) [Example 285, 1-{4-[4-((3S)-Methyl-1,1-dioxo-6-phenyl-[1,2]thiazinan-2-ylmethyl)-benzoyl]-[1,4]diazepan-1-yl}-ethanone]",4
4,"C[C@H]1CCC(c2ccccc2)S(=O)(=O)N1Cc1ccc(C(=O)N2CCN(S(=O)(=O)N(C)C)CC2)cc1 (stereo partly drawn) [Example 286, 4-[4-((3S)-Methyl-1,1-dioxo-6-phenyl-[1,2]thiazinan-2-ylmethyl)-benzoyl]-piperazine-1-sulfonic acid dimethylamide]",7.42
5,"C[C@H]1CCC(c2ccccc2)S(=O)(=O)N1Cc1ccc(C(=O)N2CCN(S(C)(=O)=O)CC2)cc1 (stereo partly drawn) [Example 287, (4-Methanesulfonyl-piperazin-1-yl)-[4-((3S)-methyl-1,1-dioxo-6-phenyl-[1,2]thiazinan-2-ylmethyl)-phenyl]-methanone]",0.203
6,"C[C@H]1CCC(c2ccccc2)S(=O)(=O)N1Cc1ccc(C(=O)N2CCN(C(=O)C3CC3)CC2)cc1 (stereo partly drawn) [Example 288, (4-Cyclopropane carbonyl-piperazin-1-yl)-[4-((3S)-methyl-1,1-dioxo-6-phenyl-[1,2]thiazinan-2-ylmethyl)-phenyl]-methanone]",2.67
7,"C[C@H]1CCC(c2ccccc2)S(=O)(=O)N1Cc1ccc(C(=O)N(C)C2CCS(=O)(=O)C2)cc1 (stereo partly drawn) [Example 289, N-(1,1-Dioxo-tetrahydro-thiophen-3-yl)-N-methyl-4-((3S)-methyl-1,1-dioxo-6-phenyl-[1,2]thiazinan-2-ylmethyl)-benzamide]",1.74
8,"C[C@H]1CCC(c2ccccc2)S(=O)(=O)N1Cc1ccc(C(=O)N2CCCC2CO)cc1 (stereo partly drawn) [Example 290, (2-Hydroxymethyl-pyrrolidin-1-yl)-[4-((3S)-methyl-1,1-dioxo-6-phenyl-[1,2]thiazinan-2-ylmethyl)-phenyl]-methanone]",1.5
9,"C[C@H]1CCC(c2ccccc2)S(=O)(=O)N1Cc1ccc(C(=O)N2CCC[C@@H]2CO)cc1 (stereo partly drawn) [Example 291, (2-Hydroxymethyl-pyrrolidin-1-yl)-[4-((3S)-methyl-1,1-dioxo-6-phenyl-[1,2]thiazinan-2-ylmethyl)-phenyl]-methanone]",0.911
10,"C[C@H]1CCC(c2ccccc2)S(=O)(=O)N1Cc1ccc(C(=O)NCC2CCOCC2)cc1 (stereo partly drawn) [Example 292, 4-((3S)-Methyl-1,1-dioxo-6-phenyl-[1,2]thiazinan-2-ylmethyl)-N-(tetrahydro-pyran-4-ylmethyl)-benzamide]",0.66
11,"C[C@H]1CCC(c2ccccc2)S(=O)(=O)N1Cc1ccc(C(=O)N2CCOC(C(=O)N(C)C)C2)cc1 (stereo partly drawn) [Example 293, 4-[4-((3S)-Methyl-1,1-dioxo-6-phenyl-[1,2]thiazinan-2-ylmethyl)-benzoyl]-morpholine-2-carboxylic acid dimethylamide]",8.31
12,"C[C@H]1CCC(c2ccccc2)S(=O)(=O)N1Cc1ccc(C(=O)N2C3CCC2C(C(N)=O)C3)cc1 (stereo partly drawn) [Example 355, 7-[4-((3S)-Methyl-1,1-dioxo-6-phenyl-[1,2]thiazinan-2-ylmethyl)-benzoyl]-7-aza-bicyclo[2.2.1]heptane-2-carboxylic acid amide]",0.51
13,"C[C@H]1CCC(c2ccccc2)S(=O)(=O)N1Cc1ccc(C(=O)N2C3CNC(=O)C2C3)cc1 (stereo partly drawn) [Example 360, 6-[4-((3S)-Methyl-1,1-dioxo-6-phenyl-[1,2]thiazinan-2-ylmethyl)-benzoyl]-3,6-diaza-bicyclo[3.1.1]heptan-2-one]",3.45
